One data set deals with P. falciparum 3D7. The experiment in a line: P. falciparum dose-response growth inhibition assay (FACS, SYTO 11). The format is cell-based. Conditions: P. falciparum 3D7, 48 h, mean (SD). Here is the method:
Apicomplexan parasite cultures were maintained at 3% hematocrit under an atmosphere of 37 °C in 93% N2, 5% CO2, and 2% O2, following standard methods. Synchronized cultures were obtained via 5% sorbitol lysis.
P. falciparum growth was primarily analyzed under 3 different concentrations ([…]) of the 81 compounds. Conditions were tested in triplicate for every concentration, and the test was repeated when the standard deviation was above 10% for any concentration. Z-values varied between 0.83 and 0.98 in the different plates analyzed. Selected compounds (12.3% potential hit rate) were further analyzed via standard growth inhibition assays, carried out as previously described in [54]. Briefly, parasitemia was adjusted to 1–1.3%, with >90% rings after sorbitol synchronization. Two hundred microliters of parasite culture were plated in 96-well microplates and incubated for 48 h at 37 °C in the presence of decreasing concentrations of the tested compounds, in triplicate. Parasitemia was determined by fluorescence-assisted cell sorting (FACS). Non-infected RBCs and samples containing parasitized RBCs (including controls with DMSO as carrier solvent) were diluted in PBS to a final concentration of ~1–10 × 10^6 cells/mL. The cell suspension was stained with SYTO 11 (0.5 mM stock in DMSO, Thermo Fisher Scientific, Waltham, MA, USA), to a final concentration of 0.5 μM. Samples were analyzed in a Becton Dickinson FACSCalibur. Sample excitation was carried out using a 488-nm, air-cooled argon-ion laser at a power of 15 mW, using forward and side scatter to gate the RBC population, and SYTO 11 green fluorescence (530 nm, FITC filter) was collected in a logarithmic scale. The single-cell population was selected on a forward–side scattergram, and the green fluorescence from this population was analyzed. Parasitemia was expressed as the number of parasitized cells per 100 erythrocytes.
(§1) Absorbance values derived from the anti-T. cruzi assays and fluorescence values from the anti-P. falciparum and cell toxicity assays were normalized to the controls. In the primary screening at three fixed doses, the compounds’ inhibitory activity was expressed as a percentage of the negative control (100% parasitic growth). In dose–response assays, the compounds’ IC50 and TC50 values were determined with GraphPad Prism 7 software (version 7.00, 2016), using a non-linear regression analysis model defined by the following equation: Y=100 ÷(1+10^((LogIC50−X)×HillSlope))

The test system of data set [1] is T. cruzi Tulahuen strain expressing β-galactosidase. As to the kind of experiment: anti-T. cruzi dose-response growth inhibition assay (Vero cells plus trypomastigotes, CPRG readout). It is filed as cell-based. Conditions: Vero cells plus trypomastigotes, MOI 1, four days, mean (SD), read-out: T. cruzi IC50 a (anti-T. cruzi assay).
The test system of the next data set is HepG2 cells. As to the kind of experiment: HepG2 cell toxicity assay (alamarBlue). The format is cell-based, human. Conditions: 2 days; minimum value of the 95% CI, except BNZ (mean (SD)). Here is the method: Human erythrocytes were purified from B+ Rh+ blood samples and maintained at 4 °C in incomplete RPMI medium. Vero (green monkey kidney epithelial cells), LLC-MK2 (Rhesus monkey kidney epithelial cells), and HepG2 (human liver epithelial cells) cultures were cultivated in DMEM supplemented with 1% penicillin–streptomycin (PS) and 10% heat-inactivated fetal bovine serum (FBS) at 37 °C, 5% CO2, and >95% humidity, as described in [31]. HepG2 cells were also supplemented with 10% non-essential amino acids. Vero and MK2 cells were passaged twice per week at 1:12 ratios, while HepG2 cells were passaged at a 1:8 ratio.
Vero and HepG2 cells were detached, centrifuged, and resuspended in DMEM without phenol red. Cell viability was checked upon cell counting with trypan blue staining. Then, Vero and HepG2 cells were diluted at a concentration of 5 × 10^5 and 3.2 × 10^5 cells per mL, respectively, before adding 100 µL per well to the 96-well plate. Each run contained its own negative (untreated cells) and positive (medium alone) controls. Plates were incubated at 37 °C for 4 days in the case of Vero, or 2 in the case of HepG2 cells. Assay readout was made by adding 50 µL per well of a PBS solution containing 10% alamarBlue reagent (Thermo Fisher Scientific); then, plates were incubated for another 6 h at 37 °C, before recording the fluorescence intensity with a Tecan Infinite M Nano+ reader (excitation: 530 nm, emission: 590 nm).
as §1

Where [2] appears, read: Trypanosoma cruzi, TULAHUEN, 96 h.

The structures appear in SMILES notation. Where two headings read alike, the source gives them in different places.

For orientation: IC50 means the concentration that gives 50% inhibition.

For the molecule `CC(C)(C)n1c(-c2ccccc2)nc2c(OCc3ccccc3)ncnc21` [Compound 6D], the IC50 came out at 18.9 µM in the data set with P. falciparum 3D7 (Plasmodium falciparum, 3D7, 48 h) and 5.56 µM in data set [1] (setting [2]). In addition, in the data set on HepG2 cells, the “HepG2 Cells TC50” value is above 200 µM.

On to `c1ccc(CCn2c(-c3ccccc3)nc3c(OCc4ccccc4)ncnc32)cc1` [Compound 6g], for which the figures for the IC50 (in the data set on P. falciparum 3D7; in data set [1]) were 19.1 µM and 3.97 µM, respectively. Further, the “HepG2 Cells TC50” value in the data set with HepG2 cells was above 300 µM.

On to `COC(=O)c1ccccc1-n1cc(COc2ncnc3c2nc(-c2ccccc2)n3N(C)C)nn1` [Compound 34], for which the IC50 in data set [1] (setting [2]) is 4.12 µM.

Source of the values: paper PMC8308784, “Novel Purine Chemotypes with Activity against Plasmodium falciparum and Trypanosoma cruzi” (Pharmaceuticals, 2021).
